Measured values taken from patent US6334996B1, “Chelators that predominantely form a single stereoisomeric species upon coordination to a metal center” (Resolution Pharmaceuticals Inc., priority 1997, dated 2002).

Tests used:
[1] = log D of the metal complexes; format: physicochemical; conditions: ^99mTc complex
[2] = humans; cited from earlier work

logD [1]	Molecule	excreted at 30 minutes [2] [%]
-2.3	CN(C)CC(=O)N[C@@H](CO)C(=O)N[C@@H](CS)C(=O)NCC(=O)O [^99mTc complex of dimethylglycine-serine-cysteine-glycine, metal not drawn]	
-1.3	CN(C)CC(=O)N[C@H](C(=O)N[C@@H](CS)C(=O)NCC(=O)O)C(C)(C)C [^99mTc complex of dimethylglycine-t-butylglycine-cysteine-glycine, metal not drawn]	
	Tc complex of 2,3-bis(mercaptoacetamide)propanoate [anti isomer of the Tc complex of 2,3-bis(mercaptoacetamide)propanoate (map)]	19
	Tc complex of 2,3-bis(mercaptoacetamide)propanoate [syn isomer of the Tc complex of 2,3-bis(mercaptoacetamide)propanoate (map)]	58
